Reference: the Deep4Chem optical property database
Values belong to the compound of their own block, whether it stands above or below them.

Test: photoluminescence quantum yield (fraction); solvent given as SMILES

Compound: CCCCN(CCCC)c1ccc(/C=C/c2ccc3c(c2)CCc2cc(/C=C/c4ccc(N(CCCC)CCCC)cc4)ccc2-3)cc1
- photoluminescence quantum yield (in CS(C)=O): 0.87
- photoluminescence quantum yield (in Cc1ccccc1): 0.71

Compound: CN(C)c1ccc2[c](c1)[Sn]([CH3])([CH3])[C]1=CC(=[N+](C)C)C=CC1=C2
- photoluminescence quantum yield (in O): 0.43

Compound: c1ccc(C2CCN3COc4c5ccccc5c5c6c7c(c2c3c46)C(c2ccccc2)CCN7CO5)cc1 (stereo not drawn)
- photoluminescence quantum yield (in C1CCCCC1): 0.715
- photoluminescence quantum yield (in C1CCOC1): 0.124
- photoluminescence quantum yield (in C1COCCO1): 0.183
- photoluminescence quantum yield (in CC#N): 0.025
- photoluminescence quantum yield (in CC(C)=O): 0.046
- photoluminescence quantum yield (in CCOC(C)=O): 0.108
- photoluminescence quantum yield (in CCOCC): 0.227
- photoluminescence quantum yield (in CN(C)C=O): 0.039
- photoluminescence quantum yield (in CO): 0.023
- photoluminescence quantum yield (in CS(C)=O): 0.026
- photoluminescence quantum yield (in Cc1ccccc1): 0.871
- photoluminescence quantum yield (in ClC(Cl)Cl): 0.053
- photoluminescence quantum yield (in ClCCl): 0.066

Compound: Cc1cc(C)c(B(c2ccc(N3c4ccccc4C(C)(C)c4ccccc43)cc2)c2c(C)cc(C)cc2C)c(C)c1
- photoluminescence quantum yield (in Cc1ccccc1): 0.89

Compound: C(=C\c1cnc2ccccc2n1)/c1ccc(N(c2ccccc2)c2ccccc2)cc1
- photoluminescence quantum yield (in ClCCl): 0.67

Compound: Cc1c(C)n2c(COC(=O)c3ccccc3O)c(C)c(=O)n2c1=O
- photoluminescence quantum yield (in CCO): 0.641

Compound: N#Cc1cccc(C#N)c1-c1ccc(N2c3ccccc3C3(c4ccccc42)c2ccccc2N(c2ccc(-c4c(C#N)cccc4C#N)cc2)c2ccccc23)cc1
- photoluminescence quantum yield (in O=P(c1ccccc1)(c1ccccc1)c1ccccc1Oc1ccccc1P(=O)(c1ccccc1)c1ccccc1): 0.65

Compound: COCCOCCOCCOCC(COCCOCCOCCOC)Oc1cc(/C=C/c2ccc(/C=C(\C#N)c3ccccn3)cc2)c(OC(COCCOCCOCCOC)COCCOCCOCCOC)cc1/C=C/c1ccc(/C=C(\C#N)c2ccccn2)cc1
- photoluminescence quantum yield (in ClCCl): 0.64

Compound: C/C=C/C1=NC(=C\c2ccc([O-])cc2)/C(=O)N1C
- photoluminescence quantum yield (in O): 0.0006

Compound: Cc1ccc(-c2ccc(-c3ccc(-c4ccc(C)cc4)cc3/C(=C(/c3ccccc3)c3cc(-c4ccc(C)cc4)ccc3-c3ccc(-c4ccc(C)cc4)cc3)c3ccccc3)cc2)cc1
- photoluminescence quantum yield (in C1CCOC1): 0.3

Compound: CCN(CC)c1ccc(-c2nc3c4ccccc4n(C)c3nc2-c2ccc(B(c3c(C)cc(C)cc3C)c3c(C)cc(C)cc3C)cc2)cc1
- photoluminescence quantum yield (in C1CCOC1): 0.27

Compound: CC(C)(C)c1ccc2c(c1)c1cc(C(C)(C)C)ccc1n2-c1cc(C(=O)c2ccncc2)cc(-n2c3ccc(C(C)(C)C)cc3c3cc(C(C)(C)C)ccc32)c1
- photoluminescence quantum yield (in Cc1ccccc1): 0.075
- photoluminescence quantum yield (in c1cc(-c2cccc(-n3c4ccccc4c4ccccc43)c2)cc(-n2c3ccccc3c3ccccc32)c1): 0.97

Now from value to compound:

- photoluminescence quantum yield (in C1CCCCC1): 0.65
- photoluminescence quantum yield (in CCOC(C)=O): 0.11
Compound: CC1=[N+]2C(=C(c3ccc4c(c3)Cc3ccccc3-4)c3ccc(C)n3[B-]2(F)F)C=C1c1cc2n(c1)[B-](F)(F)[N+]1=CC=CC1=C2c1c(C)cc(C)cc1C

- photoluminescence quantum yield (in ClC(Cl)Cl): 0.93
Compound: COC(=O)c1ccc(C2=C3C(C)=CC(C)=[N+]3[B-](F)(F)n3c(/C=C/c4c[nH]cn4)cc(C)c32)cc1

- photoluminescence quantum yield (in ClCCl): 0.1
Compound: COc1ccc(/C=C/c2cc(/C=C/c3ccc(OC)cc3)nc(/C=C/c3ccc(N(c4ccccc4)c4ccccc4)cc3)n2)cc1

- photoluminescence quantum yield (in ClCCl): 0.28
Compound: COc1ccc(-c2cc3c(ccc4sc(/C=C/c5cccs5)cc43)s2)cc1

- photoluminescence quantum yield (in CC1CCCO1): 0.15
Compound: O=c1cc2c(Br)c(O)c3cccc4ccc(o1)c2c43

- photoluminescence quantum yield (in ClCCl): 0.28
Compound: Cc1ccccc1-c1c2cccc3c(-c4ccc(C(C)(C)C)cc4)cc4c(-c5ccccc5C)c5cccc6c(-c7ccc(C(C)(C)C)cc7)cc1c(c65)c4c32

- photoluminescence quantum yield (in C1CCCCC1): 0.042
- photoluminescence quantum yield (in CC#N): 0.065
- photoluminescence quantum yield (in CCO): 0.064
- photoluminescence quantum yield (in c1ccccc1): 0.065
Compound: CNc1cccc2c1C(=O)c1ccccc1-2

- photoluminescence quantum yield (in C1CCCCC1): 0.04
- photoluminescence quantum yield (in CO): 0.01
Compound: Clc1ccc(/C=C/c2nc3ccccc3s2)cc1

- photoluminescence quantum yield (in C1CCOC1): 0.038
Compound: CC1=[N+]2C(=C(c3ccc(C(=C(c4ccccc4)c4ccccc4)c4ccccc4)cc3)c3ccc(C)n3[B-]2(F)F)C=C1

- photoluminescence quantum yield (in CN(C)C=O): 0.6
- photoluminescence quantum yield (in ClC(Cl)Cl): 0.99
Compound: CC(C)(C)c1cc(C(C)(C)C)c2oc3c(c2c1)C=CN1C(=O)C2=C4c5oc6c(C(C)(C)C)cc(C(C)(C)C)cc6c5C=CN4C(=O)C2=C31

- photoluminescence quantum yield (in CS(C)=O): 0.31
Compound: Cc1cccn2c1cc1c3ccccc3nc(-c3ccc(Cl)o3)c12
